Target: human NaV1.8 (Homo sapiens (Human), UniProt Q9Y5Y9)
Assay: Nav1.8 Qube automated patch-clamp assay
Type: cell-based
Details: human NaV1.8 stably expressed in HEK 293 cells; automated 384-well patch-clamp; resting or inactivated state not specified
Method in brief: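 Human NaV1.8 in HEK293 cells, automated whole-cell patch clamp at room temperature: 1 Hz train of ten 20 ms pulses to 10 mV from −90 mV, repolarization to −67 mV. First- and tenth-pulse peak currents gave resting and inactivated-state IC50 values via Hill fits.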

Sequence of human NaV1.8 (Q9Y5Y9 whole entry): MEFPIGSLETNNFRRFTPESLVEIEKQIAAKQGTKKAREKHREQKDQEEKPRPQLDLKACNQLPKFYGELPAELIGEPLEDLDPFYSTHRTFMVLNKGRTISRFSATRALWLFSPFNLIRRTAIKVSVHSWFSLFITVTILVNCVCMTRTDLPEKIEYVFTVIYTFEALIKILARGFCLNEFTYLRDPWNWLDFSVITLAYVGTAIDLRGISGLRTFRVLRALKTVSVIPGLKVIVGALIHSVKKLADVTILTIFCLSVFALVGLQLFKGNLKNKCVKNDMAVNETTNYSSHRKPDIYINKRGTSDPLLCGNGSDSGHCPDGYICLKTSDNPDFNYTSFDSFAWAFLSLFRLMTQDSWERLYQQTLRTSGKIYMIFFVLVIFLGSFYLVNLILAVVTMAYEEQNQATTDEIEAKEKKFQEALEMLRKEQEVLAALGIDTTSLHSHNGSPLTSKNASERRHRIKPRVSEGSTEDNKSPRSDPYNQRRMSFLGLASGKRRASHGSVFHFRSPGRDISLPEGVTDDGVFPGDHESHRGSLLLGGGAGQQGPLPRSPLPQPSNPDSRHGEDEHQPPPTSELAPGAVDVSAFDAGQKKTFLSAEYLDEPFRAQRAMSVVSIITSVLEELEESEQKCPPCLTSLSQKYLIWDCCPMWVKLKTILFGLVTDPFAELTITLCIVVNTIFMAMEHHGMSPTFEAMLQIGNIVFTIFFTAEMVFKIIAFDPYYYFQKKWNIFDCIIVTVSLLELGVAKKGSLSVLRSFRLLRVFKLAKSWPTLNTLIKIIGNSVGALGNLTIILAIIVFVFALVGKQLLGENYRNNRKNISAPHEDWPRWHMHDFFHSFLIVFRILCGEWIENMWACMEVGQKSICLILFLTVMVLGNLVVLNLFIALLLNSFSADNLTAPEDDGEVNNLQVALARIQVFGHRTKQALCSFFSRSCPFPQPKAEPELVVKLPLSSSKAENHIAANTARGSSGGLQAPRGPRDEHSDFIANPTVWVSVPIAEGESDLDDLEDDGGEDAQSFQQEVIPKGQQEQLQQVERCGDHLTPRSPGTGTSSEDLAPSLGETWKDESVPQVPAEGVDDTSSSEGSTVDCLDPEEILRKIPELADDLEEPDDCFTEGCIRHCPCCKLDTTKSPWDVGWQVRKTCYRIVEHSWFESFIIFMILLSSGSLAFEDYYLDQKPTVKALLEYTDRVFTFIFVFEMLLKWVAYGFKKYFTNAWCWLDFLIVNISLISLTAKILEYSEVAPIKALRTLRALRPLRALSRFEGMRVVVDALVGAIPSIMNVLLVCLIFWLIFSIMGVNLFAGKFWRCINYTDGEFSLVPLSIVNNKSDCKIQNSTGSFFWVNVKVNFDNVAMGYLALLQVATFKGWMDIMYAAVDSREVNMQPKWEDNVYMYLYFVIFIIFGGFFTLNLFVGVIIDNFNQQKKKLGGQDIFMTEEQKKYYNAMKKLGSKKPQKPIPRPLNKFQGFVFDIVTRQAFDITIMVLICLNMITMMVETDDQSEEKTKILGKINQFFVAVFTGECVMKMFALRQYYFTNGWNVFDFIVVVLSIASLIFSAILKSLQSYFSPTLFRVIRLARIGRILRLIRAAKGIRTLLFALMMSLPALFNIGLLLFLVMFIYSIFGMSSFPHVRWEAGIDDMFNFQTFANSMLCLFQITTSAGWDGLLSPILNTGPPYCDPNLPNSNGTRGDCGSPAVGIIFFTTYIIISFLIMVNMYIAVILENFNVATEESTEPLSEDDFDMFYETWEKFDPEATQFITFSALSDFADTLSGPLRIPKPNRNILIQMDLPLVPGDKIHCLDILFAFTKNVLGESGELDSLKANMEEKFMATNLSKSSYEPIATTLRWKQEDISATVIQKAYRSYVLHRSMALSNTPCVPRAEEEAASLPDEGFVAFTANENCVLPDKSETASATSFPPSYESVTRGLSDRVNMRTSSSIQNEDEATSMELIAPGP

Structure (SMILES) | IC50
CC(N1CC(C)(C(NC(=O)[C@@H]2CNC(=O)N2)c2ccc(F)c(Cl)c2F)C1)C(F)(F)F (single isomer, unassigned) [Example 65A, (S)—N—((R or S)-(3-chloro-2,4-difluorophenyl)(3-methyl-1-((R or S)-1,1,1-trifluoropropan-2-yl)azetidin-3-yl)methyl)-2-oxoimidazolidine-4-carboxamide] | 16200 nM
CC(N1CC(C)(C(NC(=O)[C@@H]2CNC(=O)N2)c2ccc(F)c(Cl)c2F)C1)C(F)(F)F (single isomer, unassigned) [Example 65B, (S)—N—((R or S)-(3-chloro-2,4-difluorophenyl)(3-methyl-1-((R or S)-1,1,1-trifluoropropan-2-yl)azetidin-3-yl)methyl)-2-oxoimidazolidine-4-carboxamide] | 302 nM
CC(N1CC(C)(C(NC(=O)[C@@H]2CNC(=O)N2)c2ccc(F)c(Cl)c2F)C1)C(F)(F)F (single isomer, unassigned) [Example 65C, (S)—N—((R or S)-(3-chloro-2,4-difluorophenyl)(3-methyl-1-((R or S)-1,1,1-trifluoropropan-2-yl)azetidin-3-yl)methyl)-2-oxoimidazolidine-4-carboxamide] | 309 nM
CC(N1CC(C)(C(NC(=O)[C@@H]2CNC(=O)N2)c2ccc(F)c(Cl)c2F)C1)C(F)(F)F (single isomer, unassigned) [Example 65D, (S)—N—((R or S)-(3-chloro-2,4-difluorophenyl)(3-methyl-1-((R or S)-1,1,1-trifluoropropan-2-yl)azetidin-3-yl)methyl)-2-oxoimidazolidine-4-carboxamide] | 7760 nM
Cc1nc2cc(C(NC(=O)[C@@H]3CNC(=O)N3)c3ccc(F)c(Cl)c3)ccc2s1 (single isomer, unassigned) [Example 66A, (S)—N—((R or S)-(3-chloro-4-fluorophenyl)(2-methylbenzo[d]thiazol-5-yl)methyl)-2-oxoimidazolidine-4-carboxamide] | 63 nM
Cc1nc2cc(C(NC(=O)[C@@H]3CNC(=O)N3)c3ccc(F)c(Cl)c3)ccc2s1 (single isomer, unassigned) [Example 66B, (S)—N—((R or S)-(3-chloro-4-fluorophenyl)(2-methylbenzo[d]thiazol-5-yl)methyl)-2-oxoimidazolidine-4-carboxamide] | 3.8 nM
O=C1NC[C@@H](C(=O)NC(c2ccc(F)c(Cl)c2)[C@@H]2CC[C@H]2C(F)(F)F)N1 (single isomer, unassigned) [Example 67A, (S)-N-((R or S)-(3-chloro-4-fluoro-phenyl)(trans-2-(trifluoromethyl)cyclobutyl)methyl)-2-oxoimidazolidine-4-carboxamide] | 182 nM
O=C1NC[C@@H](C(=O)NC(c2ccc(F)c(Cl)c2)[C@@H]2CC[C@H]2C(F)(F)F)N1 (single isomer, unassigned) [Example 67B, (S)-N-((R or S)-(3-chloro-4-fluoro-phenyl)(trans-2-(trifluoromethyl)cyclobutyl)methyl)-2-oxoimidazolidine-4-carboxamide] | 965 nM
O=C1NC[C@@H](C(=O)NC(c2ccc(F)c(Cl)c2)C2Cc3c(Cl)cccc32)N1 (single isomer, unassigned) [Example 70A, (S)-N-((R or S)-(3-chloro-4-fluoro-phenyl)((R or S)-2-chlorobicyclo[4.2.0]-octa-1(6),2,4-trien-7-yl)methyl)-2-oxoimidazolidine-4-carboxamide] | 26 nM
O=C1NC[C@@H](C(=O)NC(c2ccc(F)c(Cl)c2)C2Cc3c(Cl)cccc32)N1 (single isomer, unassigned) [Example 70B, (S)-N-((R or S)-(3-chloro-4-fluoro-phenyl)((R or S)-2-chlorobicyclo[4.2.0]-octa-1(6),2,4-trien-7-yl)methyl)-2-oxoimidazolidine-4-carboxamide] | 9 nM
O=C1NC[C@@H](C(=O)NC(c2ccc(F)c(Cl)c2)C2Cc3c(Cl)cccc32)N1 (single isomer, unassigned) [Example 70C, (S)-N-((R or S)-(3-chloro-4-fluoro-phenyl)((R or S)-2-chlorobicyclo[4.2.0]-octa-1(6),2,4-trien-7-yl)methyl)-2-oxoimidazolidine-4-carboxamide] | 117 nM
O=C1NC[C@@H](C(=O)NC(c2ccc(F)c(Cl)c2)C2Cc3c(Cl)cccc32)N1 (single isomer, unassigned) [Example 70D, (S)-N-((R or S)-(3-chloro-4-fluoro-phenyl)((R or S)-2-chlorobicyclo[4.2.0]-octa-1(6),2,4-trien-7-yl)methyl)-2-oxoimidazolidine-4-carboxamide] | 650 nM
O=C1NC[C@@H](C(=O)NC(c2ccc(F)c(Cl)c2)c2cc3cc(Cl)ccc3o2)N1 (single isomer, unassigned) [Example 73A, (S)-N-((R or S)-(3-chloro-4-fluorophenyl)(5-chlorobenzofuran-2-yl)methyl)-2-oxoimidazolidine-4-carboxamide] | 0.2 nM
O=C1NC[C@@H](C(=O)NC(c2ccc(F)c(Cl)c2)c2cc3cc(Cl)ccc3o2)N1 (single isomer, unassigned) [Example 73B, (S)-N-((R or S)-(3-chloro-4-fluorophenyl)(5-chlorobenzofuran-2-yl)methyl)-2-oxoimidazolidine-4-carboxamide] | 0.2 nM
O=C1NC[C@@H](C(=O)NC(c2ccc(Cl)cc2)c2cccc(OC(F)F)n2)N1 (single isomer, unassigned) [Example 74A, (S)-N-((R or S)-(4-chlorophenyl)(6-(difluoromethoxy)pyridin-2-yl)methyl)-2-oxoimidazolidine-4-carboxamide] | 19 nM
O=C1NC[C@@H](C(=O)NC(c2ccc(Cl)cc2)c2cccc(OC(F)F)n2)N1 (single isomer, unassigned) [Example 74B, (S)-N-((R or S)-(4-chlorophenyl)(6-(difluoromethoxy)pyridin-2-yl)methyl)-2-oxoimidazolidine-4-carboxamide] | 244 nM
Cn1nc(C(NC(=O)[C@@H]2CNC(=O)N2)c2ccc(Cl)cc2)cc1C(F)(F)F (single isomer, unassigned) [Example 75A] | 58 nM
Cn1nc(C(NC(=O)[C@@H]2CNC(=O)N2)c2ccc(Cl)cc2)cc1C(F)(F)F (single isomer, unassigned) [Example 75B] | 115 nM
O=C1NC[C@@H](C(=O)NC(c2ccc(F)c(Cl)c2)C2C3CN(CC(F)(F)F)CC32)N1 (single isomer, unassigned) [Example 77A, (4S)-N-((1(R or S))-(3-chloro-4-fluorophenyl)(3-(2,2,2-trifluoroethyl)-3-azabicyclo[3.1.0]hexan-6-yl)methyl)-2-oxoimidazolidine-4-carboxamide] | 26 nM
O=C1NC[C@@H](C(=O)NC(c2ccc(F)c(Cl)c2)C2C3CN(CC(F)(F)F)CC32)N1 (single isomer, unassigned) [Example 77B, (4S)-N-((1(R or S))-(3-chloro-4-fluorophenyl)(3-(2,2,2-trifluoroethyl)-3-azabicyclo[3.1.0]hexan-6-yl)methyl)-2-oxoimidazolidine-4-carboxamide] | 267 nM
CN1CCC(C(NC(=O)[C@@H]2CNC(=O)N2)c2ccc(F)c(Cl)c2F)CC1C(F)(F)F (single isomer, unassigned) [Example 78A, (S)-N-((R or S)-(3-chloro-2,4-difluoro-phenyl)((cis or trans)-1-methyl-2-(trifluoro-methyl)piperidin-4-yl)methyl)-2-oxoimidazolidine-4-carboxamide] | 4070 nM
CN1CCC(C(NC(=O)[C@@H]2CNC(=O)N2)c2ccc(F)c(Cl)c2F)CC1C(F)(F)F (single isomer, unassigned) [Example 78B, (S)-N-((R or S)-(3-chloro-2,4-difluoro-phenyl)((cis or trans)-1-methyl-2-(trifluoro-methyl)piperidin-4-yl)methyl)-2-oxoimidazolidine-4-carboxamide] | 9500 nM
CN1CCC(C(NC(=O)[C@@H]2CNC(=O)N2)c2ccc(F)c(Cl)c2F)CC1C(F)(F)F (single isomer, unassigned) [Example 78C, (S)-N-((R or S)-(3-chloro-2,4-difluoro-phenyl)((cis or trans)-1-methyl-2-(trifluoro-methyl)piperidin-4-yl)methyl)-2-oxoimidazolidine-4-carboxamide] | 8630 nM
CN1CCC(C(NC(=O)[C@@H]2CNC(=O)N2)c2ccc(F)c(Cl)c2F)CC1C(F)(F)F (single isomer, unassigned) [Example 78D, (S)-N-((R or S)-(3-chloro-2,4-difluoro-phenyl)((cis or trans)-1-methyl-2-(trifluoro-methyl)piperidin-4-yl)methyl)-2-oxoimidazolidine-4-carboxamide] | 4660 nM
CN1CCC(C(NC(=O)[C@@H]2CNC(=O)N2)c2ccc(F)c(Cl)c2F)CC1C(F)(F)F (single isomer, unassigned) [Example 78E, (S)-N-((R or S)-(3-chloro-2,4-difluoro-phenyl)((cis or trans)-1-methyl-2-(trifluoro-methyl)piperidin-4-yl)methyl)-2-oxoimidazolidine-4-carboxamide] | 24 nM
O=C1NC[C@@H](C(=O)NC(c2ccc(F)c(Cl)c2F)C2COC(C(F)(F)F)C2)N1 (single isomer, unassigned) [Example 79A, (S)-N-((R or S)-(3-chloro-2,4-difluoro-phenyl)((cis or trans)-5-(trifluoro-methyl)-tetrahydrofuran-3-yl)methyl)-2-oxoimidazolidine-4-carboxamide] | 39 nM
O=C1NC[C@@H](C(=O)NC(c2ccc(F)c(Cl)c2F)C2COC(C(F)(F)F)C2)N1 (single isomer, unassigned) [Example 79B, (S)-N-((R or S)-(3-chloro-2,4-difluoro-phenyl)((cis or trans)-5-(trifluoromethyl)tetrahydrofuran-3-yl)methyl)-2-oxoimidazolidine-4-carboxamide] | 190 nM
